Data as given in patent US20100035993A1, “METHODS AND COMPOSITIONS COMPRISING 2-[(3-CHLOROPHENYL) AMINO] PHENYLACETIC ACID FOR HYPERPERMEABILITY AND NEOVASCULARIZATION DISORDERS OF THE RETINA” (priority 2008, published 2010).

Assays:
[1] = test system: VEGF; experiment: VEGF in vitreous of streptozotocin-diabetic rats, immunoassay; format: in vivo, rat; conditions: vitreous of male streptozotocin-diabetic rats treated for 26 weeks with 15 mg/kg/day by gavage; Normal Control 75, Diabetic Control 167
Description: (§1) Vitreous was harvested from male rats that were rendered diabetic by intravenous injection of streptozotocin and that were treated for 26 weeks with 23CPPA (15 mg/kg/day) administered by gavage, and from age and gender matched diabetic and nondiabetic control rats. PEDF and VEGF were measured by immunoassay. The relative ratio of VEGF to PEDF in diabetic control rats and diabetic rats treated with 23CPPA was compared to that in nondiabetic control rats which was assigned an arbitrary value of 1.0.

[2] = test system: PEDF; experiment: PEDF in vitreous of streptozotocin-diabetic rats, immunoassay; format: in vivo, rat; conditions: vitreous of male streptozotocin-diabetic rats treated for 26 weeks with 15 mg/kg/day by gavage; Normal Control 15.3, Diabetic Control 4.6
Description: as §1

For O=C(O)Cc1ccccc1Nc1cccc(Cl)c1 [23CPPA, 2-[(3-chlorophenyl)amino]phenylacetic acid], the VEGF [1] was 105 pg/mL and the PEDF [2] was 8.7 ng/mL.
